Measurements: patent US10836770B2, “Imidazopyridazine compounds useful as modulators of IL-12, IL-23 and/or INF alpha responses” (priority 2016, dated 2020)

Tests used:
[1] = tested on: IL-23-stimulated Kit225 T cells with STAT-dependent luciferase reporter; experiment: Kit225 T cell assay, IL-23 stimulated STAT-dependent luciferase reporter; assay type: cell-based, human; conditions: Homo sapiens, KIT225, read-out: IL-23 Kit225 Reporter, LE (IC50, uM)
Experimental: (§1) Kit225 T cells with a stably-integrated STAT-dependent luciferase reporter were plated in RPMI (GIBCO) containing 10% heat-inactivated FBS (GIBCO) and 100 U/mL PenStrep (GIBCO). The cells were then stimulated with either 20 ng/mL human recombinant IL-23 or 200 U/mL human recombinant IFNα (PBL InterferonSource) for 5-6 hours. Luciferase expression was measured using the STEADY-GLO® Luciferase Assay System (PROMEGA®) according to the manufacturer's instructions.

[2] = tested on: IFNα-stimulated Kit225 T cells with STAT-dependent luciferase reporter; experiment: Kit225 T cell assay, IFNα stimulated STAT-dependent luciferase reporter; assay type: cell-based, human; conditions: Homo sapiens, KIT225, read-out: IFNa Kit225 Reporter, LE (IC50, uM)
Experimental: as §1

[3] = molecular target: T1, recombinantly expressed His-tagged protein corresponding to amino acids 575-869 of human Tyk2 (Homo sapiens, UniProt P29597); experiment: Probe displacement assay (scintillation proximity, radiolabeled probe); assay type: binding
T1 construct: made in house
T1 sequence (P29597 with tags, fused parts or gaps): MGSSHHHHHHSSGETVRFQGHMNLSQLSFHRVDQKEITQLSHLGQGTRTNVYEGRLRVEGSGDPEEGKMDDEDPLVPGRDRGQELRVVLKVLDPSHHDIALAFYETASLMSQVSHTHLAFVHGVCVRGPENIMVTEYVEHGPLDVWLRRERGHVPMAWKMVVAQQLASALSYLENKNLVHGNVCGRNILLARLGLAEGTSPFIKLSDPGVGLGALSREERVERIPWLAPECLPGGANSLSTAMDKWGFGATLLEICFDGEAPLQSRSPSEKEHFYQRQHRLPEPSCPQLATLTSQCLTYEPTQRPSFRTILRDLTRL
Experimental: The probe displacement assay is conducted as follows: In a […], test compounds along with recombinantly expressed His-tagged protein corresponding to amino acids 575-869 of human Tyk2 (sequence shown below) at 2.5 nM, 40 nM ((R)—N-(1-(3-(8-methyl-5-(methylamino)-8H-imidazo[4,5-d]thiazolo[5,4-b]pyridin-2-yl)phenyl)ethyl)-2-([^3H]methylsulfonyl)benzamide) (preparation described below) and 80 μg/mL Copper His-Tag scintillation proximity assay beads (Perkin Elmer, Catalog #RPNQ0095) in 50 mM HEPES, pH 7.5, containing 100 μg/mL bovine serum albumin and 5% DMSO were incubated for 30 minutes at room temperature. […] The IC50 value is defined as the concentration of test compound required to inhibit radiolabeled probe binding by 50%.
Protein Sequence of recombinant Hig-tagged Tyk2 (575-869):
The preparation of radiolabeled probe, (R)—N-(1-(3-(8-methyl-5-(methylamino)-8H-imidazo[4,5-d]thiazolo[5,4-b]pyridin-2-yl)phenyl)ethyl)-2-([^3H]methylsulfonyl)benzamide, was performed as described below: […]

SMILES	IC50 [1]	IC50 [2]	EC50 [3]
CNC(=O)c1nn(C)cc1Nc1cc(NC)c2ncc(C(=O)NC3CC3)n2n1 [Example 1, N-cyclopropyl-6-((1-methyl-3-(methylcarbamoyl)-1H-pyrazol-4-yl)amino)-8-(methylamino)imidazo[1,2-b]pyridazine-3-carboxamide]	1.32 µM	0.37 µM	20 nM
CNc1cc(Nc2cn(C)nc2C(=O)Nc2ccccc2)nn2c(C(=O)NC3CC3)cnc12 [Example 2]	0.94 µM	0.68 µM	3 nM
CNc1cc(Nc2cn(C)nc2C(=O)Nc2ccccn2)nn2c(C(=O)NC3CC3)cnc12 [Example 4]	0.35 µM	0.24 µM	7.6 nM
CNc1cc(Nc2cn(C)nc2C(=O)Nc2cccnc2)nn2c(C(=O)NC3CC3)cnc12 [Example 5]	0.34 µM	0.07 µM	10 nM
CNc1cc(Nc2cn(C)nc2C(=O)Nc2ccncc2)nn2c(C(=O)NC3CC3)cnc12 [Example 6]	0.07 µM	0.19 µM	3.84 nM
CNc1cc(Nc2cn(C)nc2C(=O)Nc2cc(C)c(C)nn2)nn2c(C(=O)NC3CC3)cnc12 [Example 7]	0.32 µM	0.19 µM	20 nM
CNc1cc(Nc2cn(C)nc2C(=O)Nc2cncnc2)nn2c(C(=O)NC3CC3)cnc12 [Example 8]	0.26 µM	0.22 µM	7.67 nM
CNc1cc(Nc2cn(C)nc2C(=O)NC(C)C)nn2c(C(=O)NC3CC3)cnc12 [Example 9]	0.65 µM	0.48 µM	30 nM
[2H]C([2H])([2H])NC(=O)c1nn(C)cc1Nc1cc(NC)c2ncc(C(=O)NC3CC3)n2n1 [Example 10]	0.96 µM	0.4 µM	30 nM
CNc1cc(Nc2cn(C)nc2C(=O)Nc2ccc(OC)nc2)nn2c(C(=O)NC3CC3)cnc12 [Example 11]	0.52 µM	0.48 µM	20 nM
CNc1cc(Nc2cn(C)nc2C(=O)Nc2ccc(OC)cc2)nn2c(C(=O)NC3CC3)cnc12 [Example 12]	0.12 µM	0.11 µM	7.59 nM
CNc1cc(Nc2cn(C)nc2C(=O)Nc2ccc3c(c2)OCO3)nn2c(C(=O)NC3CC3)cnc12 [Example 13]	0.33 µM	0.21 µM	7.77 nM
CNC(=O)c1nn(C)cc1Nc1cc(NC)c2ncc(C(=O)N[C@@H]3C[C@@H]3F)n2n1 [Example 14]	0.28 µM	0.25 µM	10 nM
CNc1cc(Nc2cn(C)nc2C(=O)Nc2ccccc2)nn2c(C(=O)N[C@@H]3C[C@@H]3F)cnc12 [Example 15]	0.2 µM	0.11 µM	9.37 nM
CNc1cc(Nc2cn(C)nc2C(=O)NC2CC2)nn2c(C(=O)NC3CC3)cnc12 [Example 16]	0.25 µM	0.14 µM	4.49 nM
CNc1cc(Nc2cn(C)nc2C(=O)NCC(C)C)nn2c(C(=O)NC3CC3)cnc12 [Example 17]	0.16 µM	0.49 µM	40 nM
CNc1cc(Nc2cn(C)nc2C(=O)NCCCN(C)C)nn2c(C(=O)NC3CC3)cnc12 [Example 18]	0.47 µM	0.77 µM	50 nM
CNc1cc(Nc2cn(C)nc2C(=O)NC2CCC2)nn2c(C(=O)NC3CC3)cnc12 [Example 19]	0.59 µM	12.5 µM	100 nM
CCNC(=O)c1nn(C)cc1Nc1cc(NC)c2ncc(C(=O)NC3CC3)n2n1 [Example 20]	1.12 µM	0.81 µM	30 nM
CNc1cc(Nc2cn(C)nc2C(=O)Nc2cccc(F)c2)nn2c(C(=O)NC3CC3)cnc12 [Example 21]	0.24 µM	0.5 µM	50 nM
CNc1cc(Nc2cn(C)nc2C(=O)Nc2cccc(C)c2)nn2c(C(=O)NC3CC3)cnc12 [Example 22]	0.27 µM	0.35 µM	20 nM

SMILES	IC50 [1]	IC50 [2]	EC50 [3]
CNc1cc(Nc2cn(C)nc2C(=O)Nc2ccc(F)cc2)nn2c(C(=O)NC3CC3)cnc12 [Example 23]	0.43 µM	0.81 µM	20 nM
CNc1cc(Nc2cn(C)nc2C(=O)Nc2ccc3ncsc3c2)nn2c(C(=O)NC3CC3)cnc12 [Example 24]	0.28 µM	0.34 µM	8.4 nM
CNc1cc(Nc2cn(C)nc2C(=O)Nc2ccccc2F)nn2c(C(=O)NC3CC3)cnc12 [Example 25]	0.13 µM	0.19 µM	8.89 nM
CNc1cc(Nc2cn(C)nc2C(=O)Nc2ccc(N(C)C)cc2)nn2c(C(=O)NC3CC3)cnc12 [Example 27]	0.02 µM	0.16 µM	6.8 nM
CCn1cc(Nc2cc(NC)c3ncc(C(=O)NC4CC4)n3n2)c(C(=O)NC)n1 [Example 28, N-cyclopropyl-6-((1-ethyl-3-(methylcarbamoyl)-1H-pyrazol-4-yl)amino)-8-(methylamino)imidazo[1,2-b]pyridazine-3-carboxamide]	0.21 µM	0.4 µM	20 nM
CCn1cc(Nc2cc(NC)c3ncc(C(=O)NC4CC4)n3n2)c(C(=O)Nc2cncnc2)n1 [Example 29]	0.24 µM	1.04 µM	100 nM
CCn1cc(Nc2cc(NC)c3ncc(C(=O)NC4CC4)n3n2)c(C(=O)Nc2ccccc2)n1 [Example 31]	0.72 µM	0.3 µM	9.39 nM
CNC(=O)c1n[nH]cc1Nc1cc(NC)c2ncc(C(=O)NC3CC3)n2n1 [Example 32, N-cyclopropyl-6-((3-(methylcarbamoyl)-1H-pyrazol-4-yl)amino)-8-(methylamino)imidazo[1,2-b]pyridazine-3-carboxamide]	0.83 µM	1.65 µM	30 nM
CNc1cc(Nc2c[nH]nc2C(=O)Nc2cccnc2)nn2c(C(=O)NC3CC3)cnc12 [Example 33]	1 µM	5.82 µM	30 nM
CNc1cc(Nc2c[nH]nc2C(=O)Nc2ccc(OC)nc2)nn2c(C(=O)NC3CC3)cnc12 [Example 34]	0.58 µM	0.81 µM	2.47 nM
CNC(=O)c1cn(C)nc1Nc1cc(NC)c2ncc(C(=O)NC3CC3)n2n1 [Example 35, N-cyclopropyl-6-((1-methyl-4-(methylcarbamoyl)-1H-pyrazol-3-yl)amino)-8-(methylamino)imidazo[1,2-b]pyridazine-3-carboxamide]	1.09 µM	0.47 µM	4.83 nM
CNc1cc(Nc2nn(C)cc2C(=O)Nc2ccccc2)nn2c(C(=O)NC3CC3)cnc12 [Example 36]	3.33 µM	11.9 µM	130 nM
CNc1cc(Nc2cnn(C)c2C(=O)O)nn2c(C(=O)NC3CC3)cnc12 [Example 37, 4-((3-(cyclopropylcarbamoyl)-8-(methylamino)imidazo[1,2-b]pyridazin-6-yl)amino)-1-methyl-1H-pyrazole-5-carboxylic acid]	2.34 µM	1.39 µM	50 nM
CNc1cc(Nc2cnn(C)c2C(=O)Nc2ccccc2)nn2c(C(=O)NC3CC3)cnc12 [Example 38]	4.46 µM	12.5 µM	50 nM
CNC(=O)c1cc(Nc2cc(NC)c3ncc(C(=O)NC4CC4)n3n2)n(C)n1 [Example 39, N-cyclopropyl-6-((1-methyl-3-(methylcarbamoyl)-1H-pyrazol-5-yl)amino)-8-(methylamino)imidazo[1,2-b]pyridazine-3-carboxamide]	12.5 µM	12.5 µM	1270 nM
CNc1cc(Nc2cc(C(=O)Nc3ccccc3)nn2C)nn2c(C(=O)NC3CC3)cnc12 [Example 40]	12.5 µM	12.5 µM	80 nM
CNC(=O)c1cc(Nc2cc(NC)c3ncc(C(=O)NC4CC4)n3n2)nn1C [Example 41, N-cyclopropyl-6-((1-methyl-5-(methylcarbamoyl)-1H-pyrazol-3-yl)amino)-8-(methylamino)imidazo[1,2-b]pyridazine-3-carboxamide]	12.5 µM	12.5 µM	30 nM
CNc1cc(Nc2cc(C(=O)Nc3ccccc3)n(C)n2)nn2c(C(=O)NC3CC3)cnc12 [Example 42]	12.5 µM	12.5 µM	360 nM
CNC(=O)c1sccc1Nc1cc(NC)c2ncc(C(=O)NC3CC3)n2n1 [Example 43, N-cyclopropyl-8-(methylamino)-6-((2-(methylcarbamoyl)thiophen-3-yl)amino)imidazo[1,2-b]pyridazine-3-carboxamide]	16.1 µM	12.5 µM	490 nM
CNc1cc(Nc2csnc2C(=O)Nc2ccc(OC)cc2)nn2c(C(=O)NC3CC3)cnc12 [Example 63]	–	0.29 µM	6.04 nM
